Results taken from patent US20040258662A1, “Antineoplastic agents” (Wyeth, priority 2003, published 2004).

Experiments:
HTB-44 human renal tumor = HTB-44 human renal tumor xenograft test procedure in nude mice; assay type: in vivo; set-up: Tumor mass, % of vehicle control, Week 0 / Tumor mass, % of vehicle control, Week 2 / Tumor mass, % of vehicle control, Week 4: concentration or dose not given beside the values; details: for effect on tumor growth (in words): CCI-779 25 mg/kg iv weekly or IFN-α 1 million units ip 3 times per week; for Tumor mass, Week 0 / Tumor mass, Week 2 / Tumor mass, Week 4 / Tumor mass, Week 5: CCI-779 25 mg/kg iv once per week; for Tumor mass, Week 0 / Tumor mass, Week 2 / Tumor mass, Week 4: IFN-α 1 × 10^6 units ip 3 times per week; for Tumor mass, Week 0: 4 weeks, tumors about 600 mg at start; for Tumor mass, % of vehicle control, Week 0 / Tumor mass, % of vehicle control, Week 2 / Tumor mass, % of vehicle control, Week 4 / Tumor mass, % of vehicle control, Week 5: same dosing as the tumor mass values; for Tumor mass, Week 5: IFN-α 1 × 10^6 units ip 3 times per week for 4 weeks
Protocol: CCI-779 was evaluated in combination with Interferon-alpha (IFN-α) in the HTB44 human mouse xenograft standard pharmacological test procedure of renal cancer. The human renal cell line HTB-44 (also referred to in the scientific literature as A498) is derived from a patient with a clear cell carcinoma that had lost expression of the von Hippel-Lindau (VHL) gene. These types of tumors are representative of the large majority (≈80%) of sporadic renal cell carcinomas.
CCI-779 was evaluated as a single agent on a weekly schedule against large (>500mg) HTB-44 tumors in nude mouse xenografts. Dosing was from 10 mg/kg to 75 mg/kg intravenously once a week beginning on day 0 when tumors had reached a size of about 500 mm^3.
Similarly, a dose response of IFN-α as a single agent was performed. […] Therefore, a dose of 1 million units 3 times per week intraperitoneally was chosen to combine with CCI-779 at 25 mg/kg iv once per week. Groups of 10 mice were treated with CCI-779 alone, IFN-α alone, or the combination (Table 1). IFN-α was given on days 1, 3, and 5 and CCI-779 on day 6 of each week for 4 weeks. Dosing began after tumors had reached a size of about 600 mg.

[1] = tested on: human glioblastoma cell line; details: in vitro; cited from earlier work
tumor cells = details: cited from earlier work
human tumor xenografts = details: nude mice, cited from earlier work
advanced RCC = test: Phase 1 open-label ascending-dose study of CCI-779 plus IFN in RCC patients; assay type: in vivo
Protocol: Thus, the combination of CCI-779 and IFN was evaluated in RCC patients (pts) in a phase 1 study.
In an open-label, ascending-dose, single-arm study, CCI-779 was given IV once weekly, with IFN given subcutaneously 3 times weekly. IFN was given alone the 1st treatment week. The starting dose levels were 6 million units (MU) IFN and 5 mg CCI-779. CCI-779 dose-escalation steps were 10 mg, 15 mg, and 25 mg. Once the maximum dose of CCI-779 is determined, the dose level of IFN can be escalated to 9 MU (at a reduced CCI-779 dose, if necessary). Dose escalation was based on a safety evaluation of pts (≧6/cohort) after 4 weeks of treatment.
Up to 40 patients are being evaluated at the maximum tolerated dose (MTD). In summary, 71 pts with advanced RCC were enrolled; 27 continue treatment. Patients (73% men, 27% women) had ECOG performance status of 0: 53% and 1: 46% and median age of 59 yrs (range, 35-80); 45% had prior IL-2 treatment. In dose escalation, patients received 6 MU IFNα with CCI-779 at 5 mg (7 pts), 10 mg (6), 15 mg (6), 20 mg (6), or 25 mg (7); 6 pts also received 9 MU IFNα with 15 mg CCI-779. […] To date, 33 additional patients have been accrued at the MTD. […] CCI-779-related adverse events with overall frequency ≧5% (n=53) were leukopenia (25%), hyperlipidemia (15%), asthenia (13%), AST increase (8%), mucositis (6%), anemia (6%), thrombocytopenia (6%), and rash (6%). Four patients were removed from study due to CCI-779-related toxicity. Approximately 50% of MTD patients have required CCI-779 dose reductions in subsequent cycles. Median time on treatment for all cohorts was 7 mo, 36 have continued for >6 mo of whom 9 have continued for >12 mo. Preliminary tumor responses (RECIST) in 55 pts were confirmed partial response, 7 pts (13%); stable disease, 39 (71%, 19 pts ≧6 mo); and progressive disease, 9 (16%).

[2] = Stability of CCI-779 in parenteral cosolvent formulation; assay type: physicochemical; details: citric acid at a concentration of less than 0.01% w/v
Text: In this embodiment, the stability of CCI-779 in parenterally acceptable alcoholic cosolvents is enhanced by addition of an antioxidant to the formulation. Acceptable antioxidants include, but are not limited to, citric acid, d,l-α-tocopherol, BHA, BHT, monothioglycerol, ascorbic acid, propyl gallate, and mixtures thereof. Generally, the parenteral formulations useful in this embodiment of the invention will contain an antioxidant component(s) in a concentration ranging from 0.001% to 1% w/v, or 0.01% to 0.5% w/v, of the cosolvent concentrate, although lower or higher concentrations may be desired. Of the antioxidants, d,l-α-tocopherol is particularly desirable and is used at a concentration of 0.01 to 0.1% w/v with a preferred concentration of 0.075% w/v of the cosolvent concentrate.
Examples of such chelating agents include, e.g., citric acid, acetic acid, and ascorbic acid (which may function as both a classic antioxidant and a chelating agent in the present formulations). Other chelating agents include such materials as are capable of binding metal ions in solution, such as ethylene diamine tetra acetic acid (EDTA), its salts, or amino acids such as glycine are capable of enhancing the stability of CCI-779. […] Optimal concentrations for the selected antioxidant(s) can be readily determined by one of skill in the art, based upon the information provided herein.

## Interferon α [reference compound]
HTB-44 human renal tumor; 1 million units or 0.5 million units 3 times per week, data not shown
  single agent dose response, effectiveness: similarly effective
HTB-44 human renal tumor; single agent
  effect on tumor growth (in words): retardation of tumor growth without tumor regression
HTB-44 human renal tumor
  Tumor mass, Week 0: 586 mg
  Tumor mass, % of vehicle control, Week 0: 100%
  Tumor mass, Week 2: 682 mg
  Tumor mass, % of vehicle control, Week 2: 66%
  Tumor mass, Week 4: 957 mg
  Tumor mass, % of vehicle control, Week 4: 48%
  Tumor mass, Week 5: 1280 mg
  Tumor mass, % of vehicle control, Week 5: 57%

## CO[C@H]1C[C@@H]2CC[C@@H](C)[C@@](O)(O2)C(=O)C(=O)N2CCCC[C@H]2C(=O)O[C@H]([C@H](C)C[C@@H]2CC[C@@H](OC(=O)C(C)(CO)CO)[C@H](OC)C2)CC(=O)[C@H](C)/C=C(\C)[C@@H](O)[C@@H](OC)C(=O)[C@H](C)C[C@H](C)/C=C/C=C/C=C/1C [CCI-779, Rapamycin 42-ester with 3-hydroxy-2-(hydroxymethyl)-2-methylpropionic acid]
[1]
  growth factor (platelet-derived)-induced stimulation of human glioblastoma cell line: markedly suppressed
Tumor cells; CNS cancer, leukemia (T-cell), breast, prostate and melanoma lines most sensitive
  growth of tumor cells in vitro: inhibit the growth of a number of histologically diverse tumor cells
Tumor cells; in vitro
  cell cycle effect: arrested cells in the G1 phase of the cell cycle
Human tumor xenografts
  activity in orthotopic glioma model: active
Human tumor xenografts; gliomas particularly sensitive
  activity against human tumor xenografts: activity against human tumor xenografts of diverse histological types
Advanced RCC; at MTD 15 mg CCI-779, 6 MU IFNα
  MTD patients requiring CCI-779 dose reductions in subsequent cycles: Approximately 50%
Advanced RCC; both, human, in vivo
  Grade 34 CCI-779-related adverse events, frequency: AST increase: 8%
  Grade 34 CCI-779-related adverse events, frequency: anemia: 6%
  Grade 34 CCI-779-related adverse events, frequency: asthenia: 13%
  Grade 34 CCI-779-related adverse events, frequency: hyperlipidemia: 15%
  Grade 34 CCI-779-related adverse events, frequency: leukopenia: 25%
  Grade 34 CCI-779-related adverse events, frequency: mucositis: 6%
  Grade 34 CCI-779-related adverse events, frequency: rash: 6%
  Grade 34 CCI-779-related adverse events, frequency: thrombocytopenia: 6%
Advanced RCC; human, in vivo
  CCI-779-related adverse events, frequency: anemia: 33%
  CCI-779-related adverse events, frequency: anorexia: 33%
  CCI-779-related adverse events, frequency: asthenia: 39%
  CCI-779-related adverse events, frequency: chills: 22%
  CCI-779-related adverse events, frequency: diarrhea: 28%
  CCI-779-related adverse events, frequency: fever: 22%
  CCI-779-related adverse events, frequency: hyperlipidemia: 28%
  CCI-779-related adverse events, frequency: leukopenia: 22%
  CCI-779-related adverse events, frequency: nausea: 39%
  CCI-779-related adverse events, frequency: taste perversion: 22%
  Gr 3-4 CCI-779-related AEs: hyperglycemia, number of pts: 2 pts
  Gr 3-4 CCI-779-related AEs: hyperlipidemia, number of pts: 4 pts
  Gr 3-4 CCI-779-related AEs: leukopenia, number of pts: 3 pts
  patients removed from study due to CCI-779-related toxicity: Four
Advanced RCC; preliminary results, n=18, CCI-779 5-25 mg IV once weekly with IFN 6 MU sc 3 times weekly
  CCI-779-related adverse events, frequency: mucositis: 44%
Advanced RCC; preliminary results, n=18, with IFN
  CCI-779-related adverse events, frequency: allergic reaction: 22%
[2]
  stability of CCI-779 with citric acid: enhanced the stability
HTB-44 human renal tumor; single agent, 10 mg/kg to 75 mg/kg iv once a week, tumors about 500 mm^3 on day 0, all doses
  inhibition of tumor growth: 30-35%
HTB-44 human renal tumor; single agent, 75 mg/kg
  tumor regression at three fold higher dose: did not induce tumor regression
HTB-44 human renal tumor; single agent
  effect on tumor growth (in words): retardation of tumor growth without tumor regression
HTB-44 human renal tumor
  Tumor mass, Week 0: 589 mg
  Tumor mass, % of vehicle control, Week 0: 100%
  Tumor mass, Week 2: 825 mg
  Tumor mass, % of vehicle control, Week 2: 80%
  Tumor mass, Week 4: 1382 mg
  Tumor mass, % of vehicle control, Week 4: 69%
  Tumor mass, Week 5: 1539 mg
  Tumor mass, % of vehicle control, Week 5: 68%
